Laboratory results as given in patent publication US5834487A, “Inhibition of 26S and 20S proteasome by indanones” (CV Therapeutics, priority 1996, dated 1998).

Molecular target: T1, 20S catalytic subunit of the proteasome (multicatalytic proteinase complex) (Bos taurus, UniProt Q32KL2)
T1 construct: was purified to homogeneity from bovine brain according to published methods; from tissue; host or cells: bovine brain
Assay: 20S proteasome chymotryptic activity, fluorogenic peptide cleavage
Format: biochemical, bovine
Settings: 50 μM succinyl-leu-leu-val-tyr-7-amino-4-methyl coumarin, 15 minutes at 37° C, pH7.5
Procedure: Compounds of this invention prepared according to the method of Example 1 were tested as follows. The 20S catalytic subunit of the proteasome (also known as the multicatalytic proteinase complex) was purified to homogeneity from bovine brain according to published methods (Wilk S. and Orlowski, M, 40 842 J. Neurochem (1983)). The chymotryptic activity of the complex is measured by the increase in fluorescence following cleavage of the substrate peptide succinyl-leucine-leucine-valine-tyrosine-7-amino-4-methyl coumarin. The standard in vitro assay consists of 2 μg 20S proteasome, 0.1-100 μg/ml proteasome inhibitor in 200 μl 50 mM HEPES, containing 0.1% sodium dodecyl sulphate, pH7.5. The proteolytic reaction is initiated by the addition of 50 μM fluorogenic peptide substrate and allowed to progress for 15 minutes at 37° C. The reaction is terminated by the addition of 100 μl of 100 mM acetate buffer, pH4.0. The rate of proteolysis is directly proportional to the amount of liberated aminomethylcoumarin which is measured by fluorescent spectroscopy (EX 370 nm, EM 430 nm).

Structure (SMILES)	IC50 [µg/mL]
COc1ccc2c(c1)C(CC(=O)NC(CCCNC(=N)N)C(=O)NC(CC(C)C)C(N)=O)CC2=O (mixture of isomers) [Compound 93]	> 10
COc1ccc2c(c1)C(CC(=O)NC(CC(=O)O)C(=O)NC(CC(C)C)C(N)=O)CC2=O (mixture of isomers) [Compound 94]	> 10
COc1ccc2c(c1)C(CC(=O)NC(CC(N)=O)C(=O)NC(CC(C)C)C(N)=O)CC2=O (mixture of isomers) [Compound 95]	10
COc1ccc2c(c1)C(CC(=O)NC(CC(N)=O)C(=O)NC(CC(C)C)C(N)=O)CC2=O (mixture of isomers) [Compound 96]	> 10
COc1ccc2c(c1)C(CC(=O)NC(CCC(=O)O)C(=O)NC(CC(C)C)C(N)=O)CC2=O (mixture of isomers) [Compound 97]	> 10
COc1ccc2c(c1)C(CC(=O)NC(CCC(N)=O)C(=O)NC(CC(C)C)C(N)=O)CC2=O (mixture of isomers) [Compound 98]	> 10
COc1ccc2c(c1)C(CC(=O)NC(Cc1c[nH]cn1)C(=O)NC(CC(C)C)C(N)=O)CC2=O (mixture of isomers) [Compound 99]	> 10
COc1ccc2c(c1)C(CC(=O)NC(CCCCN)C(=O)NC(CC(C)C)C(N)=O)CC2=O (mixture of isomers) [Compound 100]	> 10
COc1ccc2c(c1)C(CC(=O)NC(Cc1ccc(O)cc1)C(=O)NC(CC(C)C)C(N)=O)CC2=O (mixture of isomers) [Compound 102]	> 10
COc1ccc2c(c1)C(CC(=O)NC(Cc1c[nH]c3ccccc13)C(=O)NC(CC(C)C)C(N)=O)CC2=O (mixture of isomers) [Compound 103]	> 10
COc1ccc2c(c1)C(CC(=O)NC(CC(C)C)C(=O)NC(CC(C)C)C(=O)NC(C(N)=O)C(C)C)CC2=O (mixture of isomers) [Compound 123]	> 10
COc1ccc2c(c1)C(CC(=O)NC(CC(C)C)C(=O)NC(CC(C)C)C(=O)NC(C(N)=O)C(C)C)CC2=O (mixture of isomers) [Compound 124]	> 10
COc1ccc2c(c1)C(CC(=O)NC(CC(C)C)C(=O)NC(CC(C)C)C(=O)NC(C)C(N)=O)CC2=O (mixture of isomers) [Compound 125]	> 10
COc1ccc2c(c1)C(CC(=O)NC(CC(C)C)C(=O)NC(CC(C)C)C(=O)NC(C)C(N)=O)CC2=O (mixture of isomers) [Compound 126]	> 10
COc1ccc2c(c1)C(CC(=O)NC(CC(C)C)C(=O)NC(CC(C)C)C(=O)NC(Cc1ccccc1)C(N)=O)CC2=O (mixture of isomers) [Compound 127]	> 10
COc1ccc2c(c1)C(CC(=O)NC(CC(C)C)C(=O)NC(CC(C)C)C(=O)NC(Cc1ccccc1)C(N)=O)CC2=O (mixture of isomers) [Compound 128]	> 10
COc1ccc2c(c1)C(CC(=O)NC(CC(C)C)C(=O)NC(CCCNC(=N)N)C(N)=O)CC2=O (mixture of isomers) [Compound 129]	> 10
COc1ccc2c(c1)C(CC(=O)NC(CC(C)C)C(=O)NC(CC(=O)O)C(N)=O)CC2=O (mixture of isomers) [Compound 130]	> 10
COc1ccc2c(c1)C(CC(=O)NC(CC(C)C)C(=O)NC(CC(N)=O)C(N)=O)CC2=O (mixture of isomers) [Compound 131]	> 10
COc1ccc2c(c1)C(CC(=O)NC(CC(C)C)C(=O)NC(CC1CCCCC1)C(N)=O)CC2=O (mixture of isomers) [Compound 132]	> 10
COc1ccc2c(c1)C(CC(=O)NC(CC(C)C)C(=O)NC(CCC(=O)O)C(N)=O)CC2=O (mixture of isomers) [Compound 133]	> 10
CCCCC(NC(=O)C(CC(C)C)NC(=O)CC1CC(=O)c2ccc(OC)cc21)C(N)=O (mixture of isomers) [Compound 134]	> 10
COc1ccc2c(c1)C(CC(=O)NC(CC(C)C)C(=O)NC(Cc1c[nH]c3ccccc13)C(N)=O)CC2=O (mixture of isomers) [Compound 136]	> 10
COc1ccc2c(c1)C(CC(=O)NC(CC(C)C)C(=O)NC(CCC(N)=O)C(N)=O)CC2=O (mixture of isomers) [Compound 137]	> 10
COc1ccc2c(c1)C(CC(=O)NC(CC(C)C)C(=O)NC(CCCCN)C(N)=O)CC2=O (mixture of isomers) [Compound 138]	> 10
CCCC(NC(=O)C(CC(C)C)NC(=O)CC1CC(=O)c2ccc(OC)cc21)C(N)=O (mixture of isomers) [Compound 139]	> 10

Structure (SMILES)	IC50 [µg/mL]
COc1ccc2c(c1)C(CC(=O)NC(CC(C)C)C(=O)NC(C(N)=O)c1ccccc1)CC2=O (mixture of isomers) [Compound 140]	> 10
COc1ccc2c(c1)C(CC(=O)NC(CC(C)C)C(=O)NC(CO)C(N)=O)CC2=O (mixture of isomers) [Compound 141]	> 10
CC(C)CC(NC(=O)CC1CC(=O)c2ccccc21)C(=O)NC(CC(C)C)C(=O)NCC(N)=O (mixture of isomers) [Compound 159]	> 10
COc1ccc2c(c1)C(CC(=O)N1CCCC1CO)CC2=O (mixture of isomers) [Compound 164]	> 50
COc1ccc2c(c1)C(CC(=O)NC(CO)C(O)c1ccccc1)CC2=O (mixture of isomers) [Compound 165]	> 50
COc1ccc2c(c1)C(CC(=O)NC(CC(C)C)C(=O)NC(CC(C)C)C(=O)NC(C)(C)C(N)=O)CC2=O (mixture of isomers) [Compound 170]	> 10
COc1ccc2c(c1)C(CC(=O)NC(CC(C)C)C(=O)NC(CC(C)C)C(=O)O)CC2=O (mixture of isomers) [Compound 171]	> 10
COc1ccc2c(c1)C(CC(=O)NC(CC(C)C)C(=O)NC(CC(C)C)C(=O)O)CC2=O (mixture of isomers) [Compound 172]	> 10
COc1ccc2c(c1)C(CC(=O)NC(CC(C)C)C(=O)NC(CC(C)C)C(=O)N1CCOCC1)CC2=O (mixture of isomers) [Compound 174]	> 10
COc1ccc2c(c1)C(CC(=O)NC(CC(C)C)C(=O)NC(CC(C)C)C(=O)N1CCCCC1)CC2=O (mixture of isomers) [Compound 175]	> 10
COc1ccc2c(c1)C(CC(=O)NC(CC(C)C)C(=O)NC(CC(C)C)C(=O)N1CCCC1)CC2=O (mixture of isomers) [Compound 176]	> 10
COc1ccc2c(c1)C(CC(=O)NC(CC(C)C)C(=O)NC(CC(C)C)C(=O)N(Cc1ccccc1)Cc1ccccc1)CC2=O (mixture of isomers) [Compound 177]	1
COc1ccc2c(c1)C(CC(=O)NC(CC(C)C)C(=O)NC(CC(C)C)C(=O)NCCO)CC2=O (mixture of isomers) [Compound 178]	> 10
COc1ccc2c(c1)C(CC(=O)NC(CC(C)C)C(=O)NC(CC(C)C)C(=O)N(C)Cc1ccccc1)CC2=O (mixture of isomers) [Compound 179]	> 10
COc1ccc2c(c1)C(CC(=O)NC(CC(C)C)C(=O)NC(CC(C)C)C(=O)N(C)Cc1ccccc1)CC2=O (mixture of isomers) [Compound 180]	> 10
COc1ccc2c(c1)C(CC(=O)NC(CC(C)C)C(=O)NC(CC(C)C)C(=O)Nc1ccccc1)CC2=O (mixture of isomers) [Compound 184]	> 10
COc1ccc2c(c1)C(CC(=O)NC(CC(C)C)C(=O)NC(CC(C)C)C(=O)NCCc1ccccc1)CC2=O (mixture of isomers) [Compound 185]	> 10
COc1ccc2c(c1)C(CC(=O)NC(CC(C)C)C(=O)NC(CC(C)C)C(=O)NCCCc1ccccc1)CC2=O (mixture of isomers) [Compound 186]	> 10
COc1ccc2c(c1)C(CC(=O)NC(CC(C)C)C(=O)NC(CC(C)C)C(=O)NCC1CCCCC1)CC2=O (mixture of isomers) [Compound 188]	> 10
COc1ccc2c(c1)C(CC(=O)NC(CC(C)C)C(=O)NC(CC(C)C)C(=O)NC13CC4CC(CC(C4)C1)C3)CC2=O (mixture of isomers) [Compound 190]	> 10
COc1ccc2c(c1)C(CC(=O)NC(CC(C)C)C(=O)NC(CC(C)C)C(=O)N1CCc3ccccc3C1)CC2=O (mixture of isomers) [Compound 191]	> 10
COc1ccc2c(c1)C(CC(=O)NC(CC(C)C)C(=O)NC(CC(C)C)C(=O)NCc1ccncc1)CC2=O (mixture of isomers) [Compound 192]	10
COc1ccc2c(c1)C(CC(=O)NC(CC(C)C)C(=O)NC(CC(C)C)C(=O)NCc1ccc([N+](=O)[O-])cc1)CC2=O (mixture of isomers) [Compound 195]	10
COc1ccc2c(c1)C(CC(=O)NC(CC(C)C)C(=O)NCc1ccccc1)CC2=O (mixture of isomers) [Compound 198]	> 10
COc1ccc2c(c1)C(CC(=O)NC(CC(C)C)C(=O)N(Cc1ccccc1)Cc1ccccc1)CC2=O (mixture of isomers) [Compound 199]	> 10
